Assay results as given in article PMC3906526 (Archives of Pharmacal Research, 2013).

What follows are molecules tested against c-Kit (Homo sapiens, UniProt P10721) (assay: AlphaBead).
Format: biochemical

Sequence of c-Kit (P10721 544-976): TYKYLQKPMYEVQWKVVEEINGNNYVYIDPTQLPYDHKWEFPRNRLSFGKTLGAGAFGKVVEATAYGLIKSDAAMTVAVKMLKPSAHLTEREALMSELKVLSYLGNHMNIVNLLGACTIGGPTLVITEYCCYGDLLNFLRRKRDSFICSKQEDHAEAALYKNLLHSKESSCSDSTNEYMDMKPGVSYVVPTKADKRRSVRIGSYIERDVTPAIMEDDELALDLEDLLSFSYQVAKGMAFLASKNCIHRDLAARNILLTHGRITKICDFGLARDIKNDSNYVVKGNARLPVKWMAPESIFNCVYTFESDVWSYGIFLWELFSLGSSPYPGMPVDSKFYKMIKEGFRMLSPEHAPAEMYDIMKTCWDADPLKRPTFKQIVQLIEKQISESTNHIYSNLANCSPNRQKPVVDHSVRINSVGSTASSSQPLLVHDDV

Row | IC50 [µM] | Structure (SMILES)
1 | 13.3 | COc1ccc(-c2cc(=O)c3c(O)cc(O)cc3o2)cc1 [Y1, acacetin]
2 | 4.7 | O=c1cc(-c2ccc(O)cc2)oc2cc(O)cc(O)c12 [Y3, apigenin]

Row | Structure (SMILES) | IC50 [µM]
3 | O=c1cc(-c2ccc(O)c(O)c2)oc2cc(O)cc(O)c12 [Y4, luteolin] | 1
